Experimental data taken from PMC5908784, “Extracellular loops 2 and 3 of the calcitonin receptor selectively modify agonist binding and efficacy” (Biochemical Pharmacology, 2018).
Substitutions are numbered along the chain they refer to. Where a SMILES comes first, the peptide text is derived from it. Bridges are numbered along the chain shown (N, C = ends).

Legend:
Experiment in all cases: cAMP accumulation
Type in all cases: cell-based
Conditions in all cases: mean ± S.E.M.; for Emax: cAMP maximal response, SEM; for EC50: cAMP, CV1-FlpIn cells, 30 min, IBMX
hCTR V283A = molecular target: T1, hCTR V283A (Homo sapiens, UniProt P30988, V283A)
T1 construct: expressed in transfected cells
T1 sequence (P30988 25-474 V283A): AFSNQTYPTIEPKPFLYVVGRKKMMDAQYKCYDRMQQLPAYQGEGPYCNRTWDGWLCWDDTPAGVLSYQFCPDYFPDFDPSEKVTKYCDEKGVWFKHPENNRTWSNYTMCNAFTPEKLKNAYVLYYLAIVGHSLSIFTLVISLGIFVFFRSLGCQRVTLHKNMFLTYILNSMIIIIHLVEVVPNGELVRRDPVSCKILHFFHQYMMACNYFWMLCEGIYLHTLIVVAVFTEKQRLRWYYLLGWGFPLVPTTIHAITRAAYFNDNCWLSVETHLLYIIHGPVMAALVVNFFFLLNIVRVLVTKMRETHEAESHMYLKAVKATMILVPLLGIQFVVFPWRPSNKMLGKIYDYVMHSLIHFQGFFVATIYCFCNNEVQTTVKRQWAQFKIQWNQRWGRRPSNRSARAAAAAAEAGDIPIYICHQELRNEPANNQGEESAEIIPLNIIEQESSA
Procedure, shortened: (§1)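 Plated cells were incubated overnight and then challenged with rising ligand concentrations for 30 min alongside IBMX. Medium was replaced by absolute ethanol, which was evaporated at room temperature before cAMP determination. Values are normalized to 100 μM forskolin.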

hCTR T295A = molecular target: T2, hCTR T295A (Homo sapiens, UniProt P30988, T295A)
T2 construct: c-Myc (N); expressed in transfected cells
T2 sequence (P30988 25-474 T295A): T1 sequence (P30988 25-474 V283A) with A259V, T271A
Procedure, shortened: as §1

hCTR I300A = molecular target: T3, hCTR I300A (Homo sapiens, UniProt P30988, I300A)
T3 construct: c-Myc (N); expressed in transfected cells
T3 sequence (P30988 25-474 I300A): T1 sequence (P30988 25-474 V283A) with A259V, I276A
Procedure, shortened: as §1

hCTR M367A = molecular target: T4, hCTR M367A (Homo sapiens, UniProt P30988, M367A)
T4 construct: c-Myc (N); expressed in transfected cells
T4 sequence (P30988 25-474 M367A): T1 sequence (P30988 25-474 V283A) with A259V, M343A
Procedure, shortened: as §1

hCTR F356A = molecular target: T5, hCTR F356A (Homo sapiens, UniProt P30988, F356A)
T5 construct: c-Myc (N); expressed in transfected cells
T5 sequence (P30988 25-474 F356A): T1 sequence (P30988 25-474 V283A) with A259V, F332A
Procedure, shortened: as §1

EC50 (hCTR V283A)	EC50 (hCTR T295A)	EC50 (hCTR I300A)	EC50 (hCTR M367A)	EC50 (hCTR F356A)	Compound	Emax (hCTR V283A)	Emax (hCTR T295A)	Emax (hCTR I300A)	Emax (hCTR M367A)	Emax (hCTR F356A)
					CC[C@H](C)[C@H](NC(=O)[C@H](C)NC(=O)[C@@H](NC(=O)[C@H](CCC(N)=O)NC(=O)[C@@H]1CCCN1C(=O)[C@H](Cc1ccccc1)NC(=O)[C@@H](NC(=O)[C@H](Cc1c[nH]cn1)NC(=O)[C@H](Cc1ccccc1)NC(=O)[C@H](CCCCN)NC(=O)[C@H](CC(N)=O)NC(=O)[C@H](Cc1ccccc1)NC(=O)[C@H](CC(=O)O)NC(=O)[C@H](CCC(N)=O)NC(=O)[C@@H](NC(=O)[C@H](Cc1ccc(O)cc1)NC(=O)[C@@H](NC(=O)CNC(=O)[C@H](CC(C)C)NC(=O)[C@H](CCSC)NC(=O)[C@@H]1CSSC[C@H](N)C(=O)NCC(=O)N[C@@H](CC(N)=O)C(=O)N[C@@H](CC(C)C)C(=O)N[C@@H](CO)C(=O)N[C@@H]([C@@H](C)O)C(=O)N1)[C@@H](C)O)[C@@H](C)O)[C@@H](C)O)[C@@H](C)O)C(=O)NCC(=O)N[C@H](C(=O)NCC(=O)N[C@@H](C)C(=O)N1CCC[C@H]1C(N)=O)C(C)C [hCT]	90 ± 7%	127 ± 11%	116 ± 6%	82 ± 4%	131 ± 8%
12.9 nM	107 nM	19.5 nM	[…]	66.1 nM	CC(C)C[C@H](NC(=O)CNC(=O)[C@H](C)NC(=O)[C@H](CC(C)C)NC(=O)[C@H](CCCNC(=N)N)NC(=O)[C@H](Cc1cnc[nH]1)NC(=O)[C@@H](NC(=O)[C@@H](NC(=O)[C@@H]1CSSC[C@H](NC(=O)[C@H](C)N)C(=O)N[C@@H](CC(=O)O)C(=O)N[C@@H]([C@@H](C)O)C(=O)N[C@@H](C)C(=O)N[C@@H]([C@@H](C)O)C(=O)N1)C(C)C)[C@@H](C)O)C(=O)N[C@@H](CC(C)C)C(=O)N[C@@H](CO)C(=O)N[C@@H](CCCNC(=N)N)C(=O)N[C@@H](CO)C(=O)NCC(=O)NCC(=O)N[C@H](C(=O)N[C@H](C(=O)N[C@@H](CCCCN)C(=O)N[C@@H](CC(N)=O)C(=O)N[C@@H](CC(N)=O)C(=O)N[C@@H](Cc1ccccc1)C(=O)N[C@H](C(=O)N1CCC[C@H]1C(=O)N[C@H](C(=O)N[C@@H](CC(N)=O)C(=O)N[C@H](C(=O)NCC(=O)N[C@@H](CO)C(=O)N[C@@H](CCCCN)C(=O)N[C@@H](C)C(=O)N[C@@H](Cc1ccccc1)C(N)=O)C(C)C)[C@@H](C)O)C(C)C)C(C)C)C(C)C [hαCGRP]	130 ± 19%	79 ± 20%	73 ± 14%	[…]	128 ± 10%
0.0316 nM	0.282 nM	0.0501 nM	0.0158 nM	0.0316 nM	CSCC[C@H](NC(=O)CNC(=O)[C@H](CO)NC(=O)[C@H](Cc1ccccc1)NC(=O)[C@H](CCCNC(=N)N)NC(=O)[C@H](Cc1c[nH]cn1)NC(=O)[C@H](Cc1ccccc1)NC(=O)[C@H](CC(N)=O)NC(=O)[C@H](CC(N)=O)NC(=O)[C@H](CC(C)C)NC(=O)[C@H](CC(N)=O)NC(=O)[C@H](CCCNC(=N)N)NC(=O)[C@H](Cc1c[nH]c2ccccc12)NC(=O)[C@H](Cc1ccc(O)cc1)NC(=O)[C@H](C)NC(=O)[C@H](CO)NC(=O)[C@H](CC(C)C)NC(=O)[C@@H](NC(=O)[C@@H]1CSSC[C@H](N)C(=O)N[C@@H](CO)C(=O)N[C@@H](CC(N)=O)C(=O)N[C@@H](CC(C)C)C(=O)N[C@@H](CO)C(=O)N[C@@H]([C@@H](C)O)C(=O)N1)C(C)C)C(=O)NCC(=O)N[C@@H](Cc1ccccc1)C(=O)NCC(=O)N1CCC[C@H]1C(=O)N[C@@H](CCC(=O)O)C(=O)N[C@H](C(=O)N1CCC[C@H]1C(N)=O)[C@@H](C)O [pCT] (H-CSNLSTCVLSAYWRNLNNFHRFSGMGFGPETP-NH2; disulfide 1-7)	107 ± 9%	123 ± 8%	117 ± 11%	73 ± 13%	100 ± 2%
					CC(C)C[C@H](NC(=O)[C@H](CC(N)=O)NC(=O)[C@H](CC(N)=O)NC(=O)[C@H](CO)NC(=O)[C@H](CO)NC(=O)[C@H](CCCNC(=N)N)NC(=O)[C@@H](NC(=O)[C@H](CC(C)C)NC(=O)[C@H](Cc1ccccc1)NC(=O)[C@H](CC(N)=O)NC(=O)[C@H](C)NC(=O)[C@H](CC(C)C)NC(=O)[C@H](CCCNC(=N)N)NC(=O)[C@H](CCC(N)=O)NC(=O)[C@@H](NC(=O)[C@H](C)NC(=O)[C@@H]1CSSC[C@H](NC(=O)[C@@H](N)CCCCN)C(=O)N[C@@H](CC(N)=O)C(=O)N[C@@H]([C@@H](C)O)C(=O)N[C@@H](C)C(=O)N[C@@H]([C@@H](C)O)C(=O)N1)[C@@H](C)O)C(C)C)C(=O)NCC(=O)N1CCC[C@H]1C(=O)N[C@H](C(=O)N[C@@H](CC(C)C)C(=O)N1CCC[C@H]1C(=O)N1CCC[C@H]1C(=O)N[C@H](C(=O)N[C@@H](CC(N)=O)C(=O)N[C@H](C(=O)NCC(=O)N[C@@H](CO)C(=O)N[C@@H](CC(N)=O)C(=O)N[C@H](C(=O)N[C@@H](Cc1ccc(O)cc1)C(N)=O)[C@@H](C)O)C(C)C)[C@@H](C)O)C(C)C [rAmy]	77 ± 10%	74 ± 19%	109 ± 10%	93 ± 8%	126 ± 15%
					CC(C)C[C@H](NC(=O)[C@H](CCCCN)NC(=O)CNC(=O)[C@H](CC(C)C)NC(=O)[C@@H](NC(=O)[C@@H]1CSSC[C@H](N)C(=O)N[C@@H](CO)C(=O)N[C@@H](CC(N)=O)C(=O)N[C@@H](CC(C)C)C(=O)N[C@@H](CO)C(=O)N[C@@H]([C@@H](C)O)C(=O)N1)C(C)C)C(=O)N[C@@H](CO)C(=O)N[C@@H](CCC(N)=O)C(=O)N[C@@H](CCC(=O)O)C(=O)N[C@@H](CC(C)C)C(=O)N[C@@H](Cc1c[nH]cn1)C(=O)N[C@@H](CCCCN)C(=O)N[C@@H](CC(C)C)C(=O)N[C@@H](CCC(N)=O)C(=O)N[C@H](C(=O)N[C@@H](Cc1ccc(O)cc1)C(=O)N1CCC[C@H]1C(=O)N[C@@H](CCCNC(=N)N)C(=O)N[C@H](C(=O)N[C@@H](CC(N)=O)C(=O)N[C@H](C(=O)NCC(=O)N[C@@H](CO)C(=O)NCC(=O)N[C@H](C(=O)N1CCC[C@H]1C(N)=O)[C@@H](C)O)[C@@H](C)O)[C@@H](C)O)[C@@H](C)O [sCT]	116 ± 12%	138 ± 13%	113 ± 11%	79 ± 3%	100 ± 1%
